Test results published in ChEMBL document CHEMBL1201862, “PubChem BioAssay data set” (2004).
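Assay format: 96-well plates, 48-hour exposure. Here, GI50 denotes the concentration required for 50% inhibition of growth.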 The source made the active and inactive calls. Cut-off read from the data, not from the text of the source: active = GI50 up to about 1.1 µM and inactive = higher.

Legend:
Experiment in all cases: growth of human tumour cells (NCI), 48 h
UACC-62 = test system: UACC-62
OVCAR-8 = test system: OVCAR-8
SF-539 = test system: SF-539
NCI-H460 = test system: NCI-H460
HCT-15 = test system: HCT-15
T47D = test system: T47D
CCRF-CEM = test system: CCRF-CEM
ACHN = test system: ACHN
DU-145 = test system: DU-145
HCC 2998 = test system: HCC 2998
COLO 205 = test system: COLO 205
NCI/ADR-RES = test system: NCI/ADR-RES
TK-10 = test system: TK-10
OVCAR-5 = test system: OVCAR-5
SK-MEL-5 = test system: SK-MEL-5
Hs-578T = test system: Hs-578T
NCI-H23 = test system: NCI-H23
OVCAR-4 = test system: OVCAR-4
HT-29 = test system: HT-29
K562 = test system: K562

SMILES | GI50 (UACC-62) | GI50 (OVCAR-8) | GI50 (SF-539) | GI50 (NCI-H460) | GI50 (HCT-15) [µM] | GI50 (T47D) | GI50 (CCRF-CEM) | GI50 (ACHN) | GI50 (DU-145) | GI50 (HCC 2998) | GI50 (COLO 205) | GI50 (NCI/ADR-RES) | GI50 (TK-10) | GI50 (OVCAR-5) | GI50 (SK-MEL-5) | GI50 (Hs-578T) | GI50 (NCI-H23) | GI50 (OVCAR-4) | GI50 (HT-29) | GI50 (K562)
CC(C)(Cl)C(Br)CCC(C)(Br)C(Br)CBr (centres undefined) | 17.7 µM (inactive) | 16.2 µM (inactive) | 15.6 µM (inactive) | 15.3 µM (inactive) | 17.1 | 18.7 µM (inactive) | 10.5 µM (inactive) | 17.4 µM (inactive) | 19.6 µM (inactive) | 13.1 µM (inactive) | 16.9 µM (inactive) | 17 µM (inactive) | 27.5 µM (inactive) | 15.7 µM (inactive) | 14.6 µM (inactive) | 21.5 µM (inactive) | 19.5 µM (inactive) | 18.7 µM (inactive) | 15.8 µM (inactive) | 23 µM (inactive)
N#CC1=C(N)OC2=C(CCCc3ccc([N+](=O)[O-])cc32)C1c1ccc(Cl)cc1 (centres undefined) | 5.02 µM (inactive) | 6.58 µM (inactive) | 8.97 µM (inactive) | 3.83 µM (inactive) | 3.12 | 3.78 µM (inactive) | 4.39 µM (inactive) | 4.59 µM (inactive) | 8.51 µM (inactive) | 8.02 µM (inactive) | 5.35 µM (inactive) | 6.28 µM (inactive) | 10.6 µM (inactive) | 16.6 µM (inactive) | 4.38 µM (inactive) | 17.1 µM (inactive) | 5.11 µM (inactive) | 3.3 µM (inactive) | 4.1 µM (inactive) | 3.88 µM (inactive)
COC1=CC(=O)c2c(cc(COP(=O)(N(C)CCBr)N(C)CCBr)n2C)C1=O | 0.414 µM (active) | 0.241 µM (active) | < 0.0178 µM (active) | 0.0582 µM (active) | 0.491 | 0.55 µM (active) | 0.0356 µM (active) | < 0.0108 µM (active) | < 0.0235 µM (active) | 0.494 µM (active) | 0.865 µM (active) | 1.24 µM (inactive) | 0.247 µM (active) | 0.583 µM (active) | 1.07 µM (active) | 1.77 µM (inactive) | < 0.0212 µM (active) | 5.32 µM (inactive) | 0.0413 µM (active) | 1.52 µM (inactive)
N#Cc1nc(C#N)n(C(=O)c2ccccc2)c1NC(=O)c1ccccc1 | > 100 µM (inactive) | > 100 µM (inactive) | > 100 µM (inactive) | > 100 µM (inactive) | > 100 | > 100 µM (inactive) | > 100 µM (inactive) | > 100 µM (inactive) | > 100 µM (inactive) | > 100 µM (inactive) | > 100 µM (inactive) | > 100 µM (inactive) | > 100 µM (inactive) | > 100 µM (inactive) | > 100 µM (inactive) | > 100 µM (inactive) | > 100 µM (inactive) | > 100 µM (inactive) | > 100 µM (inactive) | > 100 µM (inactive)
CCOC(=O)NN(C(=O)OCC)c1c(C)cc(C)cc1C | > 100 µM (inactive) | > 100 µM (inactive) | > 100 µM (inactive) | > 100 µM (inactive) | > 100 | > 100 µM (inactive) | > 100 µM (inactive) | – | > 100 µM (inactive) | > 100 µM (inactive) | > 100 µM (inactive) | > 100 µM (inactive) | > 100 µM (inactive) | > 100 µM (inactive) | > 100 µM (inactive) | > 100 µM (inactive) | > 100 µM (inactive) | > 100 µM (inactive) | > 100 µM (inactive) | > 100 µM (inactive)
CC12CN(CC[N+](C)(C)C)CC1(C)C1CCC2O1 (centres undefined) | > 100 µM (inactive) | > 100 µM (inactive) | > 100 µM (inactive) | > 100 µM (inactive) | > 100 | > 100 µM (inactive) | > 100 µM (inactive) | > 100 µM (inactive) | > 100 µM (inactive) | > 100 µM (inactive) | > 100 µM (inactive) | > 100 µM (inactive) | > 100 µM (inactive) | > 100 µM (inactive) | > 100 µM (inactive) | > 100 µM (inactive) | > 100 µM (inactive) | > 100 µM (inactive) | > 100 µM (inactive) | > 100 µM (inactive)
CCOC(=O)N(C)CCC1CC=CC(=O)C1c1cccc(OC)c1OC (centres undefined) | 15.6 µM (inactive) | 21.3 µM (inactive) | 9.91 µM (inactive) | 16.7 µM (inactive) | 14 | 21.4 µM (inactive) | 10.6 µM (inactive) | 34 µM (inactive) | 12.1 µM (inactive) | 13.1 µM (inactive) | 4 µM (inactive) | 19.8 µM (inactive) | 22.5 µM (inactive) | 17.3 µM (inactive) | 9.53 µM (inactive) | 71.4 µM (inactive) | 14 µM (inactive) | 28 µM (inactive) | 13.8 µM (inactive) | 23.2 µM (inactive)
